Experiment: complexation properties of chelating agents with 225Ac
Format: physicochemical
Settings: compared with the non-functionalised chelating agents EDTA, DTPA, DOTA, PEPA, HEHA, HOHEC and EDTMP
Method: Different non-functionalised chelating agents (commercially available or readily synthesised in the laboratory) bearing aminocarboxylate groups (EDTA, DTPA, DOTA, PEPA, HEHA and HOHEC) or aminophosphonate groups (EDTMP) were tested for their complexation properties with ^225Ac. […] Polyaza polycarboxylic macrocycles are known to form thermodynamically stable complexes with large metal ions such as actinides and lanthanides.

O=C(O)CN1CCN(CC(=O)O)CCN(CC(=O)O)CCN(CC(=O)O)CCN(CC(=O)O)CCN(CC(=O)O)CCN(CC(=O)O)CCN(CC(=O)O)CC1 [HOTEC, 1,4,7,10,13, 16,19,22-octacarboxylmethyl-1,4,7,10,13,16,19,22-octaazacyclotetracosane]
complexation properties with ^225Ac: best candidate

— patent publication US7045606B2, “Bifunctional chelating agent for actinium” (European Community, priority 2001, dated 2006)
